# Measurements reported in patent publication US9994522B2, “Amorphous form of apremilast” (MAPI PHARMA LTD., priority 2014, dated 2018).
# Experiments:
# [1] = Dynamic Vapor Sorption (DVS) / hygroscopicity; format: physicochemical; settings: for Change In Mass (%) - ref, Desorption / Change In Mass (%) - ref, Sorption / Change In Mass (%) - ref, Hysteresis: 25° C.
# Experimental: Details of DVS method used in the tests are mentioned below: • Samples (about 10 mg) were transferred into a DVS pan, the weight changes were recorded with respect to the atmospheric humidity at 25° C.
# The following parameters were used: • Equilibrium: dm/dt: 0.01%/min. (for min: 10 min and max: 180 min). • Drying: 0% RH for 120 min. • RH (%) measurement step: 5%, • RH (%) measurement step scope: 0˜95˜0%.
# [2] = Physical stability on storage, XRPD pattern; format: physicochemical; settings: for physical stability: 25° C. closed, 25° C./60% RH and 40° C. closed, three months (not 40° C./75% RH)
# Experimental: 3.1 XRPD Method • Details of XRPD method used in the tests are mentioned below: • X-ray Generator: Cu, Kα (λ=1.54179 Å). • Tube Voltage: 40 kV; Current: 40 mA. • Scanning Scope: 4 to 40 deg; • Sample rotation speed: 15 rpm. • Scanning rate: 10 deg/min
# About 40 mg of scaled up amorphous sample prepared by solvent-anti-solvent precipitation (addition of water to acetone) as described in Example 6 was weighed into glass vials. The vials were stored under different testing conditions (25° C. closed vial, 25° C./60% RH, 40° C. closed vial and 40° C./75% RH) 1 week, 2 weeks, 4 weeks, and 3 months. The original scaled up amorphous form was used as a control. XRPD and mDSC were checked at the end of each time point.
# [3] = DVS Cycle 1, target 10.0 % P/Po
# [4] = DVS Cycle 1, target 15.0 % P/Po
# [5] = DVS Cycle 1, target 20.0 % P/Po
# [6] = DVS Cycle 1, target 25.0 % P/Po
# [7] = DVS Cycle 1, target 30.0 % P/Po
# [8] = DVS Cycle 1, target 35.0 % P/Po
# [9] = DVS Cycle 1, target 40.0 % P/Po
# [10] = DVS Cycle 1, target 45.0 % P/Po
# [11] = DVS Cycle 1, target 50.0 % P/Po
# [12] = DVS Cycle 1, target 55.0 % P/Po
# [13] = DVS Cycle 1, target 60.0 % P/Po
# [14] = DVS Cycle 1, target 65.0 % P/Po
# [15] = DVS Cycle 1, target 70.0 % P/Po
# [16] = DVS Cycle 1, target 75.0 % P/Po
# [17] = DVS Cycle 1, target 80.0 % P/Po
# [18] = DVS Cycle 1, target 85.0 % P/Po
# [19] = DVS Cycle 1, target 90.0 % P/Po
# [20] = DVS Cycle 1, target 95.0 % P/Po
compound,measurement,setting,value
"CCOc1cc([C@@H](CS(C)(=O)=O)N2C(=O)c3cccc(NC(C)=O)c3C2=O)ccc1OC [amorphous apremilast, N-[2-[(1S)-1-(3-ethoxy-4-methoxyphenyl)-2-(methylsulfonyl)ethyl]-2,3-dihydro-1,3-dioxo-1H-isoindol-4-yl]acetamide]","Change In Mass (%) - ref, Desorption","[1]; DVS Cycle 1, target 0.0 % P/Po",−0.066%
same,"Change In Mass (%) - ref, Sorption","[1]; DVS Cycle 1, target 0.0 % P/Po",−0.010%
same,"Change In Mass (%) - ref, Desorption","[1]; DVS Cycle 1, target 5.0 % P/Po",0.138%
same,"Change In Mass (%) - ref, Hysteresis","[1]; DVS Cycle 1, target 5.0 % P/Po",−0.045%
same,"Change In Mass (%) - ref, Sorption","[1]; DVS Cycle 1, target 5.0 % P/Po",0.183%
same,"Change In Mass (%) - ref, Desorption",[1]; [3],0.308%
same,"Change In Mass (%) - ref, Hysteresis",[1]; [3],−0.006%
same,"Change In Mass (%) - ref, Sorption",[1]; [3],0.314%
same,"Change In Mass (%) - ref, Desorption",[1]; [4],0.463%
same,"Change In Mass (%) - ref, Hysteresis",[1]; [4],0.030%
same,"Change In Mass (%) - ref, Sorption",[1]; [4],0.434%
same,"Change In Mass (%) - ref, Desorption",[1]; [5],0.606%
same,"Change In Mass (%) - ref, Hysteresis",[1]; [5],0.066%
same,"Change In Mass (%) - ref, Sorption",[1]; [5],0.540%
same,"Change In Mass (%) - ref, Desorption",[1]; [6],0.740%
same,"Change In Mass (%) - ref, Hysteresis",[1]; [6],0.107%
same,"Change In Mass (%) - ref, Sorption",[1]; [6],0.633%
same,"Change In Mass (%) - ref, Desorption",[1]; [7],0.860%
same,"Change In Mass (%) - ref, Hysteresis",[1]; [7],0.131%
same,"Change In Mass (%) - ref, Sorption",[1]; [7],0.730%
same,"Change In Mass (%) - ref, Desorption",[1]; [8],0.976%
same,"Change In Mass (%) - ref, Hysteresis",[1]; [8],0.155%
same,"Change In Mass (%) - ref, Sorption",[1]; [8],0.821%
same,"Change In Mass (%) - ref, Desorption",[1]; [9],1.090%
same,"Change In Mass (%) - ref, Hysteresis",[1]; [9],0.181%
same,"Change In Mass (%) - ref, Sorption",[1]; [9],0.909%
same,"Change In Mass (%) - ref, Desorption",[1]; [10],1.203%
same,"Change In Mass (%) - ref, Hysteresis",[1]; [10],0.200%
same,"Change In Mass (%) - ref, Sorption",[1]; [10],1.003%
same,"Change In Mass (%) - ref, Desorption",[1]; [11],1.311%
same,"Change In Mass (%) - ref, Hysteresis",[1]; [11],0.224%
same,"Change In Mass (%) - ref, Sorption",[1]; [11],1.087%
same,"Change In Mass (%) - ref, Desorption",[1]; [12],1.411%
same,"Change In Mass (%) - ref, Hysteresis",[1]; [12],0.238%
same,"Change In Mass (%) - ref, Sorption",[1]; [12],1.173%
same,"Change In Mass (%) - ref, Desorption",[1]; [13],1.514%
same,"Change In Mass (%) - ref, Hysteresis",[1]; [13],0.250%
same,"Change In Mass (%) - ref, Sorption",[1]; [13],1.263%
same,"Change In Mass (%) - ref, Desorption",[1]; [14],1.619%
same,"Change In Mass (%) - ref, Hysteresis",[1]; [14],0.258%
same,"Change In Mass (%) - ref, Sorption",[1]; [14],1.360%
same,"Change In Mass (%) - ref, Desorption",[1]; [15],1.730%
same,"Change In Mass (%) - ref, Hysteresis",[1]; [15],0.270%
same,"Change In Mass (%) - ref, Sorption",[1]; [15],1.460%
same,"Change In Mass (%) - ref, Desorption",[1]; [16],1.836%
same,"Change In Mass (%) - ref, Hysteresis",[1]; [16],0.338%
same,"Change In Mass (%) - ref, Sorption",[1]; [16],1.498%
same,"Change In Mass (%) - ref, Desorption",[1]; [17],1.940%
same,"Change In Mass (%) - ref, Hysteresis",[1]; [17],0.306%
same,"Change In Mass (%) - ref, Sorption",[1]; [17],1.634%
same,"Change In Mass (%) - ref, Desorption",[1]; [18],1.972%
same,"Change In Mass (%) - ref, Hysteresis",[1]; [18],0.208%
same,"Change In Mass (%) - ref, Sorption",[1]; [18],1.763%
same,"Change In Mass (%) - ref, Desorption",[1]; [19],1.956%
same,"Change In Mass (%) - ref, Hysteresis",[1]; [19],0.122%
same,"Change In Mass (%) - ref, Sorption",[1]; [19],1.834%
same,"Change In Mass (%) - ref, Desorption",[1]; [20],1.883%
same,"Change In Mass (%) - ref, Sorption",[1]; [20],1.883%
same,Hygroscopicity Classification,"[1]; based on DVS data, criterion at 25 ± 1° C. and 80 ± 2% RH",slightly hygroscopic
same,physical stability,[2],good physical stability
same,physical stability,[2]; listed as Apremilast,stable for three months
same,XRPD Pattern,[2]; Initial,Amorphous
